According to patent publication US20230071014A1 (priority 2020, published 2023):

Legend:
[1] = tested on: HIV-1 isolates; conditions: low passage clinical isolates, n=13; cited from earlier work
[2] = tested on: SARS-CoV-2; assay: Ritonavir reducing viral nucleic acid load in SARS-CoV-2 infected Vero E6 cells (qRT-PCR); type: cell-based, SARS-CoV-2 (nCoV-2019BetaCoV/Wuhan/WIV04/2019 strain); conditions: for Copy number of virus genome: Vero E6 cells, supernatant, vehicle 5762396
Method: (1) Drug Treatment of Virus-Infected Cells
Vero E6 cells (purchased from ATCC, Catalog No. 1586) was inoculated on a 24-well plate, cultured for 24 hours; then virus infection was carried out. Specifically, SARS-CoV-2 (2019-nCoV) virus (nCoV-2019BetaCoV/Wuhan/WIV04/2019 strain, provided by Wuhan Institute of Virology, Chinese Academy of Sciences) was diluted with 2% cell maintenance solution (formulation: FBS (purchased from Gibco company, Catalog No. 16000044) was added to MEM (purchased from Gibco, Catalog No. 10370021) at a volume ratio of 2%, thereby obtaining the 2% cell maintenance solution) to a corresponding concentration, and then added to a 24-well plate so that each well contained a viral load of 100TCID50. […] To the vehicle control group, the 2% cell maintenance solution without any test drugs was added.
RNA extraction kit was purchased from Qiagen Company, Catalog No. 74106. The consumables (spin columns, RNase-free 2 ml collection tubes, etc.) and reagents (RLT, RW1, RPE, RNase-free water, etc.) involved in the following RNA extraction steps were part of the kit. The following extraction steps were recommended steps in the kit instruction.
1) 100 μL of the supernatant was taken from the tested plate and added to a nuclease-free EP tube, then 350 μL of Buffer RLT was added to each well and mixed by beating with a transfer liquid gun until complete lysis was achieved, then centrifugation was carried out to obtain a supernatant;
2) an equal volume of 70% ethanol was added to the supernatant obtained in 1) and mixed well;
3) the mixture solution obtained in 2) was transferred to a RNase-free spin column, and centrifuged at 12000 rpm for 15 seconds, and the waste liquid was discarded;
4) 700 μL of Buffer RW1 was added to the spin column, and centrifuged at 12000 rpm for 15 seconds to clean the spin column, and the waste liquid was discarded;
5) 500 μL of Buffer RPE was added to the spin column, and centrifuged at 12000 rpm for 15 seconds to clean the spin column, and the waste liquid was discarded;
6) 500 μL of Buffer RPE was added to the spin column, and centrifuged at 12000 rpm for 2 min to clean the spin column, the waste was discarded;
7) a new RNase-free 2 ml collection tube was used for replacement, centrifugation was carried out at 12000 rpm for 1 min, the spin column was dried, and then the spin column was transferred to a 1.5 ml collection tube in step 8);
8) a new 1.5 ml collection tube was used for replacement, in which the spin column dried in step 7) was placed, and […] of RNase-free water was added to the spin column, and centrifugation was carried out at 12000 rpm for 2 minutes, the obtained eluate contained the corresponding RNA, then the RNase inhibitor (purchased from NEB company, Catalog No. […]) was added, and Nano Drop (purchased from Thermo scientific, Nano Drop One) was used to detect each RNA concentration.
(3) RNA Reverse Transcription
In the experiment, the reverse transcription kit (PrimeScript™ RT reagent Kit with gDNA Eraser, Catalog No. RRO47Q) produced by TaKaRa was used for RNA reverse transcription.
The steps were as follows.
(1) Removal of gDNA: RNA samples of each experimental group were collected, 1 μg of each sample was taken for reverse transcription. First, 2 μl of 5×gDNA Eraser Buffer was added to the RNA sample of each experimental group, the reaction system was supplemented with RNase-free water to reach 10 μl, mixed well, and subjected to water bath at 42° C. for 2 min to remove the gDNA that might be present in the sample;
(2) Reverse transcription: Appropriate amounts of enzyme, primer Mix and reaction buffer were added to the sample obtained in […], RNase-free water was added to supplement to reach a volume of 20 μl, the reaction was performed in a water bath at 37° C. for 15 minutes, and then in water bath at 85° C. for 5 seconds, to obtain cDNA by transcription. […]

[3] = tested on: SARS-CoV; conditions: cited from earlier work; for Inhibitory activity against SARS-CoV: Thorax 2004, 59: 252-256

SMILES | EC50 [1] [nM] | Copy number of virus genome ([2]; 0.14 μM, 48 hours after infection) | Copy number of virus genome ([2]; 0.41 μM, 48 hours after infection) | Copy number of virus genome ([2]; 1.23 μM, 48 hours after infection) | Copy number of virus genome ([2]; 3.70 μM, 48 hours after infection) | Copy number of virus genome ([2]; 11.11 μM, 48 hours after infection) | Copy number of virus genome ([2]; 33.33 μM, 48 hours after infection) | Reduction of viral RNA load in Vero E6 cells infected by SARS-CoV-2 ([2]; 48 hours after infection, FIG. 1) | Inhibition of the replication of SARS-CoV-2 virus genome in the infected supernatant ([2]; at concentrations of 33 μM, 11.1 μM) | Effectiveness against SARS-CoV ([3]; Biochemical and Biophysical Research Communications 318 (2004) 719-725) | Inhibitory activity against SARS-CoV [3]
CC(C)c1nc(CN(C)C(=O)N[C@H](C(=O)N[C@@H](Cc2ccccc2)C[C@H](O)[C@H](Cc2ccccc2)NC(=O)OCc2cncs2)C(C)C)cs1 [ritonavir, [5S-(5R,8R,10R,11R)]-10-hydroxy-2-methyl-5-(1-methylethyl)-1-[2-(1-methylethyl)-4-thiazolyl]-3,6-dioxo-8,11-bis(phenylmethyl)-2,4,7,12-tetraazatridecan-13-oic acid, 5-thiazolyl methyl ester] | 22 | 6032699 | 5632446 | 5565821 | 6213595 | 2236225 | 1855399 | inhibitory activity is dose-dependent | could effectively inhibit | ineffective | does not have inhibitory activity
Cc1cccc(C)c1OCC(=O)N[C@@H](Cc1ccccc1)[C@@H](O)C[C@H](Cc1ccccc1)NC(=O)[C@H](C(C)C)N1CCCNC1=O [lopinavir] |  |  |  |  |  |  |  |  |  |  | inhibits SARS-CoV
